Results taken from patent US5847108A, “Clathrate of isoflavone derivatives and edible composition comprising the same” (Fujicco Co., Ltd., priority 1996, dated 1998).

Experiments:
[1] = Serum (blood) level of isoflavone derivatives after oral administration to ovariectomized rats; design: species or system Sprague-Dawley rats; settings: in vivo
Protocol: (§1) To obtain postmenopausal osteoporosis model, eighty-day-old Sprague-Dawley rats, on day 10 after ovariectomy, was grown for 28 days feeding with calcium deficient diet (Ca: 0.004%, P: 0.3%), with one group consisting of 5 to 6 rats. During the time the rats were growing, an isoflavone derivative, or a β-cyclodextrin clathrate thereof (see Table 3), was administered orally in the form of a solution or a suspension in 1% aqueous hydroxypropylcellulose. On the day before the final administration, urine was collected for 24 hours. Blood was collected from postcava at 4 hours after the final administration, and a femur was removed. The collected blood was separated to obtain serum according to a standard method. In order to determine the amounts of isoflavone derivatives in the obtained samples of urine and serum, the samples were subjected to the reactions for 2 hours at 37° C. through adding thereto 50 Units/ml of sulfatase (EC3.1.6.1; SIGMA CHEMICAL Co. LTD.) in 1 ml of acetate buffer (0.1M, pH 4.5). Then 1 ml of acetate buffer (0.1M, pH 4.5) containing β-glucuronidase (200 Units/ml, EC 3.2.1.31, WAKO JYUNYAKU KOGYO KABUSIKI KAISYA) was added to the mixture and incubated for 2 hours at 37° C. After treating it with Sep-Pak (Waters), the incubated solution was analyzed using HPLC as described in the above clathrate formation test. Concentration of each isoflavone derivatives in the sample was determined based on the values for daidzein, genistein, or glycitein as a standard. Bone density of femur was calculated based on wet weight and volume measured by pycnometer.

[2] = tested on: postmenopausal osteoporosis model (femur); assay: Bone density of femur in postmenopausal osteoporosis model (ovariectomized rats, calcium deficient diet); assay type: in vivo, Sprague-Dawley rats; settings: ovariectomized rat femur, oral, 28 days; Means ± S.D.; a: vs nonclathrated, b: vs control (1%)
Protocol: as §1

[3] = 24 h urinary excretion of isoflavone derivatives after oral administration to ovariectomized rats; design: species or system Sprague-Dawley rats; settings: in vivo, rat, 24 h urine on day before final administration, Means ± S.D., a: significantly different from nonclathrated (1%), read-out: Urinary Excretion Rate
Protocol: as §1, with “Then 1 ml of acetate buffer (0.1M, pH 4.5) containing β-glucuronidase (200 Units/ml, EC 3.2.1.31, WAKO JYUNYAKU KOGYO KABUSIKI KAISYA) was added to the mixture and incubated for 2 hours at 37° C.” left out

[4] = in words, dietary intake; cited from earlier work

SMILES | concentration at 4 h ([1]; rat) [ng/mL] | Bone Density [2] [g/mL] | dose excreted at 24 h [3] [%] | concentration at 4 h ([1]; heading: Blood Level, rat serum, oral, 4 hours after the final administration, Means ± S.D., a: significantly different from nonclathrated (1%)) [ng/mL] | urinary excretion in Japanese female relative to female in Boston or Helsinki [4]
CC(=O)OC[C@H]1O[C@@H](Oc2ccc3c(=O)c(-c4ccc(O)cc4)coc3c2)[C@H](O)[C@@H](O)[C@@H]1O [6"-O-acetyldaidzin] | 740 ± 50 | 1.492 ± 0.014 | – | – | –
CC(=O)OC[C@H]1O[C@@H](Oc2cc(O)c3c(=O)c(-c4ccc(O)cc4)coc3c2)[C@H](O)[C@@H](O)[C@@H]1O [6"-O-acetylgenistin] | 780 ± 70 | 1.494 ± 0.028 | – | – | –
COc1cc2c(=O)c(-c3ccc(O)cc3)coc2cc1O[C@@H]1O[C@H](COC(C)=O)[C@@H](O)[C@H](O)[C@H]1O [6"-O-acetylglycitin] | 720 ± 60 | 1.489 ± 0.012 | – | – | –
O=C(O)CC(=O)OC[C@H]1O[C@@H](Oc2ccc3c(=O)c(-c4ccc(O)cc4)coc3c2)[C@H](O)[C@@H](O)[C@@H]1O [6"-O-malonyldaidzin] | 850 ± 50 | 1.488 ± 0.012 | – | – | –
O=C(O)CC(=O)OC[C@H]1O[C@@H](Oc2cc(O)c3c(=O)c(-c4ccc(O)cc4)coc3c2)[C@H](O)[C@@H](O)[C@@H]1O [6"-O-malonylgenistin] | 840 ± 40 | 1.494 ± 0.013 | – | – | –
COc1cc2c(=O)c(-c3ccc(O)cc3)coc2cc1O[C@@H]1O[C@H](COC(=O)CC(=O)O)[C@@H](O)[C@H](O)[C@H]1O [6"-O-malonylglycitin] | 780 ± 50 | 1.489 ± 0.012 | – | – | –
O=C(O)CCC(=O)OC[C@H]1O[C@@H](Oc2ccc3c(=O)c(-c4ccc(O)cc4)coc3c2)[C@H](O)[C@@H](O)[C@@H]1O [6"-O-succinyldaidzin] | 860 ± 30 | 1.490 ± 0.030 | – | – | –
O=C(O)CCC(=O)OC[C@H]1O[C@@H](Oc2cc(O)c3c(=O)c(-c4ccc(O)cc4)coc3c2)[C@H](O)[C@@H](O)[C@@H]1O [6"-O-succinylgenistin] | 820 ± 50 | 1.486 ± 0.028 | – | – | –
COc1cc2c(=O)c(-c3ccc(O)cc3)coc2cc1O[C@@H]1O[C@H](COC(=O)CCC(=O)O)[C@@H](O)[C@H](O)[C@H]1O [6"-O-succinylglycitin] | 790 ± 30 | 1.477 ± 0.032 | – | – | –
O=c1c(-c2ccc(O)cc2)coc2cc(O)ccc12 [daidzein] | 650 ± 40 | 1.489 ± 0.013 | – | – | –
O=c1c(-c2ccc(O)cc2)coc2cc(O[C@@H]3O[C@H](CO)[C@@H](O)[C@H](O)[C@H]3O)ccc12 [daidzin] | – | 1.496 ± 0.015 | 9.3 ± 0.7 | 840 ± 30 | ten times greater
O=c1c(-c2ccc(O)cc2)coc2cc(O)cc(O)c12 [genistein] | 680 ± 30 | 1.492 ± 0.012 | – | – | –
O=c1c(-c2ccc(O)cc2)coc2cc(O[C@@H]3O[C@H](CO)[C@@H](O)[C@H](O)[C@H]3O)cc(O)c12 [genistin] | 780 ± 40 | 1.502 ± 0.007 | – | – | –
COc1cc2c(=O)c(-c3ccc(O)cc3)coc2cc1O [glycitein] | 630 ± 50 | 1.493 ± 0.013 | – | – | –
COc1cc2c(=O)c(-c3ccc(O)cc3)coc2cc1O[C@@H]1O[C@H](CO)[C@@H](O)[C@H](O)[C@H]1O [glycitin] | 750 ± 60 | 1.494 ± 0.015 | – | – | –
